Results on two compounds are retold here after US20220079909A1, “Food Supplement For Improving Sports Performance” (NUTRIBAM BV, priority 2019, published 2022).

The assay deals with male subjects. The assay is described as follows: Synergetic efficiency of sulphoraphane and curcumin in four groups: training diary, HRV, RHR (Example 4). It counts as in vivo, human. The following applies: 5-day period; for muscle pain and fatigue during the day (training diary): oral daily dose, compared to the negative control (Group nC, Gatorade powder); for HRV and RHR indices (overtraining): compared to the negative control (Group nC). The protocol:
The synergetic efficiency of a composition comprising both sulphoraphane and curcumin, was analysed. This analysis was realized, for monitoring the performances and recuperation of subjects, after doing a daily physical activity. The monitoring was done by means of a training diary which had to be completed three times a day, as well as by measuring the 'heart rate variability' (HRV), and the 'rest hear rate' (RHR) of these subjects. The HRV was analysed under controlled laboratory circumstances, before and after doing the prescribed daily physical activity. Analogously, the RHR was analysed under controlled laboratory circumstances, before and after doing the prescribed daily physical activity. The training diary was made up of a questionnaire, which needed to be completed by means of a scale of five (scale of […]). Questions were asked about possible muscle pain of the subjects, but also for example their energy level during the different moments of the day. 37 male subjects were selected to take part in the experiment. Their physical characteristics were as follows (average and SD): age 27.6 SD:1.6 years; weight 79.3 SD:2.1 kg; length 184 SD:3 cm. The subjects were divided into 4 groups: a group receiving only curcumin (Group C, n=10) (daily dose of 50 mg), a group receiving only sulphoraphane (Group S, n=10) (daily dose 25 mg), a group receiving both curcumin and sulphoraphane (Group C+S, n=10) (the same concentrations as the controls), and finally, a negative control was included in the experiment, it comprises a group receiving a similar dose of placebo, thereto Gatorade powder was used (Group nC, n=7). Each subject was asked to take a prescribed daily dose for five successive days. Each dose was dissolved in hot water. During this period, the subjects also had to follow a similar protein diet. The whole experiment was divided into 4 time periods, here, the different groups were tested successively. Between the different time periods, a two-week period was provided in which no experiment was carried out. The different compositions were administered orally every day in the form of a powder or dispersed in a drink. The daily dose of this powder for Group C comprised […] and 950 mg of Gatorade powder. The daily dose of this powder for Group S comprised […] and 950 mg of Gatorade powder. The daily dose of this powder for Group C+S comprised 25 mg of sulphoraphane, 50 mg of curcumin and 950 mg of Gatorade powder. The daily dose of this powder for Group nC comprised 1000 mg of Gatorade powder.

Take `COc1cc(/C=C/C(=O)CC(=O)/C=C/c2ccc(O)c(OC)c2)ccc1O` [Group C, curcumin]: the “muscle pain and fatigue during the day (training diary)” value is “less muscle pain and fatigue”; the “HRV and RHR indices (overtraining)” value was “will probably overtrain less”.

Turning to `C[S+]([O-])CCCCN=C=S` (stereo not shown) [Group S, 1-isothiocyanato-4-methyl sulfinyl butane], the “muscle pain and fatigue during the day (training diary)” value was “less muscle pain and fatigue”; the “HRV and RHR indices (overtraining)” value is given as “will probably overtrain less”.
